The values below come from patent EP0316592A2, “3'-Fluoro-2',3'-dideoxyuridine, and its therapeutic application” (Stichting REGA V.Z.W., priority 1987, dated 1989).

The test system of data set [1] is HIV. As to conditions: MT4 lymphocytes; cited from earlier work.
In data set [2] the test system is Moloney murine sarcoma virus (MSV). As to the kind of experiment: Inhibition of transformation of C3H cells by MSV. It counts as cell-based. The method, then:
Moloney murine sarcoma virus (MSV) was prepared from tumors induced by in vivo infection of 10 day-old NMRI mice according to the procedure described by De Clercq et al (Proc. Soc. Exp. Biol. Med. 137, 590-594 (1971)).
ddUrd and the substituted pymiridine 2′,3′-dideoxynucleoside analogues were examined for their inhibitory effect on the transformation of mouse embryo C3H fibroblasts by Moloney murine sarcoma virus (MSV).
C3H cells were seeded at 20,000 cells per ml into wells of Costar Tissue Culture Cluster plates (48 wells per plate) and grown to confluency. Cell cultures were then infected by 150 foci-forming units of MSV during 90 min, whereafter the culture medium was replaced by 1 ml fresh medium containing different concentrations of the test compound. After 6 days, the transformation of the cell cultures was examined microscopically.

The next data set deals with C3H cells. As to the kind of experiment: Cytotoxicity for C3H cells (alteration of normal cell morphology). It counts as cell-based, mouse. As to conditions: alteration of normal cell morphology, C3H cells.
For a further data set, the target named is T1, Molt/4F dCyd kinase (Homo sapiens, UniProt P27707).
T1 construct: endogenous in cells; host or cells: Molt/4F cells (sonicated extract, 30-70% ammonium sulfate fraction, dialyzed)
T1 sequence (P27707 whole entry): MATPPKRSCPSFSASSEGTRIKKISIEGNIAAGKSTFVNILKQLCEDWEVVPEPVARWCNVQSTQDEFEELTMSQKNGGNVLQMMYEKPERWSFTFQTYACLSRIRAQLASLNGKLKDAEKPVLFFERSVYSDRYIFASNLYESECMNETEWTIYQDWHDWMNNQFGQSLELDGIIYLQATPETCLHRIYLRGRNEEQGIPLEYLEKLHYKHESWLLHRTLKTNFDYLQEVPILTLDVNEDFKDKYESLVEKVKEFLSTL
Description: Inhibition of dCyd kinase (Lineweaver-Burk). Type of data set: biochemical. As to the method:
ddUrd and the 3′-fluoro- and 3′-azido-substituted pyrimidine 2′,3′-dideoxynucleoside analogues were evaluated for their inhibitory effect against dThd and dCyd kinase.
dThd kinase and dCyd kinase were prepared from exponen tially growing Molt/4F cells, which were first washed (2x) with phosphate-buffered saline at 4° and then homogenized by sonication. The suspensions were clarified by centrifugation at 25,000-27,000 x g for 30 min. The 30-70% (NH₄)₂SO₄ precipitate of the supernatant was resuspended in buffer containing 10 uM potassium phosphate, pH 7.5, 10 mM β-mercaptoethanol and 0.1 M KCl, dialyzed against the same buffer, and used for the dThd kinase and the dCyd kinase assays. In these experiments, (2-¹⁴C)dThd and (U-¹⁴C)dCyd served as the radiolabelled substrates. The apparent Km and Ki values were derived from Lineweaver-Burk plots, using a linear regression analysis program. The assay procedures have been described in detail (J. Balzarini et al, (1983) and J. Balzarini et al, Biochem. Pharmacol. 31, 3673-3682 (1982)).

For data set [3], the target named is T2, bacterial thymidine phosphorylase (Escherichia coli, UniProt P07650).
T2 construct: purchased Sigma Chemical Co., St. Louis, MO
T2 sequence (P07650 whole entry): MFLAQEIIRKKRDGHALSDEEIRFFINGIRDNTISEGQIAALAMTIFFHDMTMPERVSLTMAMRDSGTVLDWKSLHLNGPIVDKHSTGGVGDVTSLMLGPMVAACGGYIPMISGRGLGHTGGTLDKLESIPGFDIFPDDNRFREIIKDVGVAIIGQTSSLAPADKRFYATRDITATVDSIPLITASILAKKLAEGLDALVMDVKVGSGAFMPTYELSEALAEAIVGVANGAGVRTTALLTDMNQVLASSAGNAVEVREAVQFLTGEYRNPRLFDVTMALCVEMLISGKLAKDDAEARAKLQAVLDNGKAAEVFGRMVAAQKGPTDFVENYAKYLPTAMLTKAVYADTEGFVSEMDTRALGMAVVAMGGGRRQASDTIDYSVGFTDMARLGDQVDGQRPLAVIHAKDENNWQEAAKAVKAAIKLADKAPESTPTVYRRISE
Description: Phosphorolytic cleavage by dThd phosphorylase. As to conditions: for Initial velocity of phosphorolysis: 25°C, 0.1 M sodium phosphate buffer, pH 7.0, N.D. = not detectable with 25 units of enzyme. It counts as biochemical. As to the method: Phosphorolytic cleavage of the test compounds was assessed using purified bacterial dThd phosphorylase (Sigma Chemical Co., St. Louis, MO) with the aid of a Beckman spectrophotometer UV/Vis 5200; the absorbance change during the enzyme reaction was continuously monitored at 25°C at the wavelength where the difference of absorption between the nucleoside and its free base was maximal. The reaction mixtures for all the assays consisted of enzyme and non-satura ting concentrations of nucleoside in 0.1 M sodium phosphate buffer, pH 7.0. The initial velocity of phosphorolysis was expressed as nmol/min/enzyme unit.

The subject of data set [4] is HIV. The settings on record: ATH8 T-lymphocyte cell line; cited from earlier work.

As for `Cc1cn([C@H]2C=C[C@@H](CO)O2)c(=O)[nH]c1=O` [2′,3′-didehydro-2′,3′-dideoxythymidine], in the data set with HIV [1], the “concentration that protects MT4 cells against HIV” value is listed as 0,04 µM.

Consider `Cc1cn([C@H]2CC[C@@H](CO)O2)c(=O)[nH]c1=O` [2′,3′-dideoxythymidine], for which the “concentration that protects MT4 cells against HIV” value with HIV [1] is reported as 1 µM.

A word on the Ki: it is the dissociation constant of the complex between target and ligand, obtained from inhibition or displacement. Lower therefore signals higher affinity. Turning to `[N-]=[N+]=N[C@H]1C[C@H](n2ccc(N)nc2=O)O[C@@H]1CO` [AzddCyd, 3′-Azido-2′,3′-dideoxycytidine], the EC50 in data set [2] (Moloney murine sarcoma virus, 144 h, 50% reduction of transformation of C3H cells by MSV, 6 days, read-out: MSV-induced cyto-pathogenicity ED50) is 70 µM. The “MSV-induced cyto-pathogenicity S.I.” value in data set [2] (Selectivity index or ratio of CD50 to ED50, C3H cells) is above 5.7. In the data set with C3H cells, the “MSV-induced cyto-pathogenicity CD50” value is above 400 µM. On Molt/4F dCyd kinase (Km 5.2 to 6.4 µM), the Ki/Km amounted to 58. Further, the Ki at Molt/4F dCyd kinase (substrate (U-14C)dCyd) was determined as 354 µM. Also, the Type of inhibition entry on Molt/4F dCyd kinase (with respect to dCyd) is recorded as “competitive”. Also, the “susceptibility to phosphorolysis by dThd phosphorylase (in words)” value in data set [3] (purified bacterial dThd phosphorylase) is on record as “totally resistant”. In addition, in the data set with HIV [4], the “anti-retroviral effect compared with ddCyd” value is on record as “much less effective than ddCyd”.

Consider `Cc1cn([C@H]2C[C@H](N=[N+]=[N-])[C@@H](CO)O2)c(=O)[nH]c1=O` [AzddThd, 3′-azido-2′,3′-dideoxythymidine], for which the “concentration that protects MT4 cells against HIV” value in the data set on HIV [1] is 0.02 µM.

`CCc1cn([C@H]2C[C@H](O)[C@@H](CO)O2)c(=O)[nH]c1=O` [dEtUrd]: the “Initial velocity of phosphorolysis” value in data set [3] stood at 0.893 nmol/min/unit.

Consider `O=c1ccn([C@H]2C[C@H](O)[C@@H](CO)O2)c(=O)[nH]1` [dUrd], for which the “Initial velocity of phosphorolysis” value in data set [3] came to 361 nmol/min/unit.
